≈ marks a conversion by molar mass, not a printed value. Read-outs that look alike come from different tables or passages of the source. Each block holds one molecule with its values, some of them ahead of it.
Columns and labels:
[1] = Aqueous solubility of crystalline Compound A at physiological pHs; type: physicochemical
[2] = Caco-2 assay (permeability); type: in vitro ADME; settings: human
Description: The permeability of the compound is not high as determined with the Caco-2 assay value of 0.8×10^−6 cm/s. The poor solubility and the targeted high doses/frequency of dosing for this series of compounds led to the categorization of Compound A as BCS class IV compound (poor solubility/poor permeability).

[3] = Pharmacokinetics / bioavailability in monkeys; settings: IV, 1.25 mg/kg, fed
[4] = Solubility in bio-relevant fluids (FaSSIF, FeSSIF); type: physicochemical; settings: thermodynamic from solid, 37° C.
Method: Approximately 5 mg of Compound A as MBP was placed in 20 mL of 37° C. bio-relevant fluids (Fasted State Simulated Intestinal Fluid and Fed State Simulated Intestinal Fluid) and was filtered through a 0.2 μm filter over time. The filtrate was then analyzed by HPLC.

[5] = Animal pharmacokinetics study of formulations (FIG. 3); settings: oral formulations
[6] = Salt screening: solubility of various salts of Compound A; settings: for solubility: salts of Compound A, at the pH of the same line
[7] = pH belonging to the solubility value of the salt

Molecule: CS(=O)(=O)O [Methanesulfonic acid (Mesylate)]
pH [6]: 3.1

Molecule: [K+] [Potassium]
pH [6, 7]: 8.0
solubility [6]: 0.5 µg/mL

Molecule: Cc1ccc(S(=O)(=O)O)cc1 [p-Toluenesulfonic acid]
pH [6, 7]: 2.7
solubility [6]: <0.02 µg/mL

Molecule: Sodium
pH [6, 7]: 7.2
solubility [6]: 0.7 µg/mL

Continued, values first:

solubility ([1]; aqueous medium, aqueous buffer, crystalline form, physiological pHs (pH 1.5-7.0)): < 0.05 µg/mL
solubility ([1]; pH 1.5, aqueous buffer, crystalline forms, in water at physiological pHs (pH1.5-8.0)): < 0.05 µg/mL
Papp [2]: 0.8 ×10⁻⁶ cm/s
% AUC Extrap [3]: 0.7%
AUC/Dose [3]: 10.3 µg·h/mL/mg/kg
Molecule: COc1cc(C(=O)O)ccc1NC(=O)[C@@H]1N[C@@H](CC(C)(C)C)[C@](C#N)(c2ccc(Cl)cc2F)[C@H]1c1cccc(Cl)c1F [Compound A, 4-{[(2R,3S,4R,5S)-4-(4-Chloro-2-fluoro-phenyl)-3-(3-chloro-2-fluoro-phenyl)-4-cyano-5-(2,2-dimethyl-propyl)-pyrrolidine-2-carbonyl]-amino}-3-methoxy-benzoic acid]

solubility ([4]; Fasted State Simulated Intestinal Fluid (FaSSIF), FaSSIF): 2 µg/mL (≈ 3.24 µM)
solubility ([4]; Fed State Simulated Intestinal Fluid (FeSSIF), FeSSIF): 3 µg/mL (≈ 4.87 µM)
Molecule: COc1cc(C(=O)O)ccc1NC(=O)[C@@H]1N[C@@H](CC(C)(C)C)[C@](C#N)(c2ccc(Cl)cc2F)[C@H]1c1cccc(Cl)c1F [Crystalline Form, 4-{[(2R,3S,4R,5S)-4-(4-Chloro-2-fluoro-phenyl)-3-(3-chloro-2-fluoro-phenyl)-4-cyano-5-(2,2-dimethyl-propyl)-pyrrolidine-2-carbonyl]-amino}-3-methoxy-benzoic acid]

bioavailability (exposure) (in words) [5]: not improved
aqueous solubility (in words) ([6]; among the salts identified in salt screening): most improved aqueous solubility
pH [6, 7]: 7.8
solubility [6]: >1400 µg/mL
Molecule: CNC[C@H](O)[C@@H](O)[C@H](O)[C@H](O)CO [Meglamine]

From patent publication US10034854B2, “Pharmaceutical composition with improved bioavailability” (Hoffmann-La Roche Inc., priority 2013, dated 2018)
